Source: article PMC11547015 (International Journal of Molecular Sciences, 2024)
“And” between values parts separate entries of the source, which are not always exact repeats. Equal entries are not always repeated. “Also recorded” adds a separate entry of the source. Where two headings read alike, the source gives them in different places.

Biological target: T1, human D2 receptor (Homo sapiens, UniProt P14416)
T1 construct: host or cells: CHO-K1
Assay: Dopamine assay: functional cAMP read-out (HitHunter cAMP XS+, Gi/o agonist format)
Assay type: cell-based
Details: for EC50: CHO-K1 cells overexpressing the human D2 receptor, cAMP read-out, 25 µM forskolin, n = 2 independent experiments; for dopaminergic activity (in words): isolated compounds, D2 receptor activity assay; for change in activity on the D2 receptor relative to 7: compared with 3-epi-maslinic acid (7)
Procedure: Dopaminergic activity was determined with a functional assay in CHO-K1 cells overexpressing the human D2 receptor, using a cAMP read-out (Eurofins DiscoverX Corporation, Fremont, CA, USA). The cells (5000 cells/cm^2) were seeded in a total volume of 20 μL onto white 384-well microplates and incubated at 37 °C for 18 h prior to testing. cAMP modulation was determined using the DiscoverX HitHunter cAMP XS+ assay. Since the D2 receptor couples mainly to Gi/o (inhibitory towards cAMP), the assay was run in Gi/o agonist format. In brief, the cells were incubated with the samples in the presence of 25 µM forskolin to induce a response. Medium was aspirated from cells and replaced with 10 µL HBSS/10 mM Hepes (assay buffer). Intermediate dilution of sample stocks was performed in the assay buffer to generate a concentration 4-fold higher (4×) than the final in-well concentration. A total of 5 µL of 4× sample was added to the cells, followed by 5 µL 4× EC80 forskolin in the assay buffer and incubated at 37 °C for 30 min. The final DMSO concentration (vehicle) was 1%. After appropriate compound incubation, the assay signal was generated through incubation with 5 µL of cAMP XS + Ab reagent followed by 20 μL cAMP XS + ED/CL lysis cocktail for one hour followed by incubation with 20 μL cAMP XS + EA reagent for three hours at room temperature. The microplates were read following signal generation with an Envision^TM instrument (PerkinElmer, Waltham, MA, USA) for chemiluminescent signal detection.
For Gi agonist mode assays, percentage activity was calculated using the following formula: % Activity = 100% × (1 − (mean RLU of test sample − mean RLU of MAX control)/(mean RLU of vehicle control − mean RLU of MAX control)). Concentration–response curves were generated using EC50 using Graphpad Prism version 9.0 (Graphpad Software, Boston, MA, USA), and curve fitting was performed using non-linear regression analysis applying the following variable slope equation: Y = Bottom + (Top − Bottom)/(1 + 10^((LogEC50 − X) × HillSlope)).

[1] = read-out: EC50 at the D2 receptor

T1 sequence (P14416 whole entry): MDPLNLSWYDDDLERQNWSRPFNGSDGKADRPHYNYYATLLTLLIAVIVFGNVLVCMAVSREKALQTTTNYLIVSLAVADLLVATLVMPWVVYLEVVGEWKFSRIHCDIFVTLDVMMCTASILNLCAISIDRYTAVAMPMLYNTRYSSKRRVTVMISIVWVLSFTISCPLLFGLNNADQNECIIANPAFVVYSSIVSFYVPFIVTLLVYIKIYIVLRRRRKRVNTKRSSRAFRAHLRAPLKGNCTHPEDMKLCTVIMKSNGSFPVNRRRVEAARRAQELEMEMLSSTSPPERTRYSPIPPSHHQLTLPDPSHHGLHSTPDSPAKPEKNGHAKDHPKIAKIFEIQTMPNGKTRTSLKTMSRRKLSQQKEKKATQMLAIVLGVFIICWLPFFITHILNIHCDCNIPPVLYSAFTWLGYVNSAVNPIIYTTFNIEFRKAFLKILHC

Row | SMILES | EC50 [1] | EC50 (EC50 at the D2 receptor) | dopaminergic activity (in words) | other results
1 | CC(=O)O[C@@H]1C[C@@H](C)[C@](O)(CCC2=CC(=O)OC2O)[C@@]2(C)CCCC(C)(C)[C@H]12 (stereo partly shown) [compound 1, Viteagnusin I] |  | 6.61 µM and 6.6 µM |  | IC50: 6.6 µM
2 | CC(=O)O[C@@H]1C[C@@H](C)[C@](O)(CCc2ccoc2)[C@@]2(C)CCCC(C)(C)[C@H]12 [compound 2, Rotundifuran] | 12.8 µM |  |  | 
3 | CC(=O)O[C@@H]1C[C@@H](C)[C@](O)(CCC2=CC(=O)OC2)[C@@]2(C)CCCC(C)(C)[C@H]12 [compound 3, Vitexilactone] | > 50 µM |  |  | 
4 | C=CC(C)(O)CC[C@@]1(C)C2=C([C@H](OC(C)=O)[C@H](OC(C)=O)[C@H]1C)C(C)(C)CCC2 (stereo partly shown) [compound 6, Vitetrifolin D] |  | > 50 µM | either negligible or no dopaminergic activity; also recorded: either weak or no dopaminergic activity | 
5 | CC1(C)CC[C@]2(C(=O)O)CC[C@]3(C)C(=CC[C@@H]4[C@@]5(C)C[C@@H](O)[C@@H](O)C(C)(C)[C@@H]5CC[C@]43C)[C@@H]2C1 [compound 7, 3-epi-Maslinic acid] |  | 5.1 µM | active | 
6 | CC1(C)CC[C@]2(C(=O)O)CC[C@]3(C)C(=CC[C@@H]4[C@@]5(C)C[C@@H](O)[C@H](O)C(C)(C)[C@@H]5CC[C@]43C)[C@@H]2C1 [compound 8, Maslinic acid] |  | 21.3 µM | active | change in activity on the D2 receptor relative to 7: 4 fold
7 | C[C@H]1[C@H](C)CC[C@]2(C(=O)O)CC[C@]3(C)C(=CC[C@@H]4[C@@]5(C)C[C@@H](O)[C@@H](O)C(C)(C)[C@@H]5CC[C@]43C)[C@H]12 [compound 9, 3-epi-Corosolic acid] |  | 10.7 µM | active | change in activity on the D2 receptor relative to 7: 2 fold
8 | C[C@H]1[C@H](C)CC[C@]2(C(=O)O)CC[C@]3(C)C(=CC[C@@H]4[C@@]5(C)C[C@@H](O)[C@H](O)C(C)(C)[C@@H]5CC[C@]43C)[C@H]12 [compound 10, Corosolic acid] |  | > 50 µM |  | change in activity on the D2 receptor relative to 9 (epimers 9 and 10, differing at C3): > 5 fold
9 | CC1(C)CC[C@]2(C(=O)O)CC[C@]3(C)C(=CC[C@@H]4[C@@]5(C)CC[C@H](O)C(C)(C)[C@@H]5CC[C@]43C)[C@@H]2C1 [oleanolic acid, reference compound] |  | ≥ 50 µM |  | 

The next lines start with results.

Row | EC50 [1] | SMILES | EC50 (EC50 at the D2 receptor) | dopaminergic activity (in words) | other results
10 | ≥ 50 µM | CC1(C)CC[C@]2(C(=O)O)CC[C@]3(C)C(=CC[C@@H]4[C@@]5(C)C[C@@H](O)[C@H](O)[C@@](C)(CO)[C@@H]5CC[C@]43C)[C@@H]2C1 [arjunolic acid, reference compound] |  |  | 
11 | 24.3 µM | C=CC(C)(O)CC[C@@H]1[C@@]2(C)CCCC(C)(C)[C@@H]2CC[C@]1(C)O (stereo partly drawn) [compound 4, 8-epi-Sclareol] |  | either negligible or no dopaminergic activity; also recorded: either weak or no dopaminergic activity | 
12 | > 50 µM | C=CC(C)(O)CC[C@H]1[C@@]2(C)CCCC(C)(C)[C@@H]2CC[C@@]1(C)O (stereo partly shown) [compound 5, Viteagnusin C] |  | either negligible or no dopaminergic activity; also recorded: either weak or no dopaminergic activity | 
13 | > 50 µM | C[C@@H]1CC[C@]2(C(=O)O)CC[C@]3(C)C(=CC[C@@H]4[C@@]5(C)C[C@@H](O)[C@@H](O)C(C)(C)[C@@H]5CC[C@]43C)[C@@H]2[C@]1(C)O [compound 11, Euscaphic acid] |  |  | 
14 | > 50 µM | C[C@@H]1CC[C@]2(C(=O)O)CC[C@]3(C)C(=CC[C@@H]4[C@@]5(C)C[C@@H](O)[C@H](O)C(C)(C)[C@@H]5CC[C@]43C)[C@@H]2[C@]1(C)O [compound 12, Tormentic acid] |  |  | 
15 | ≥ 50 µM | C[C@H]1[C@H](C)CC[C@]2(C(=O)O)CC[C@]3(C)C(=CC[C@@H]4[C@@]5(C)CC[C@H](O)C(C)(C)[C@@H]5CC[C@]43C)[C@H]12 [ursolic acid, reference compound] |  |  | 
